Reference: ChEMBL document CHEMBL4806968, “Hipk inhibitors and methods of use thereof” (2020)
Active and inactive are the calls of the source. The rule behind the calls is not given here.

What was measured:
[1] = biological target: Mitogen-activated protein kinase 11 (Homo sapiens) (UniProt Q15759); assay: Inhibition of p38beta (unknown origin) at 0.5 uM relative to control
[2] = biological target: Ephrin type-A receptor 1 (Homo sapiens) (UniProt P21709); assay: Inhibition of EPHA1 (unknown origin) at 0.5 uM relative to control
[3] = biological target: Mitogen-activated protein kinase kinase kinase 10 (Homo sapiens) (UniProt Q02779); assay: Inhibition of MLK2 (unknown origin) at 0.5 uM relative to control
[4] = biological target: Serine/threonine-protein kinase PLK2 (Homo sapiens) (UniProt Q9NYY3); assay: Inhibition of PLK2 (unknown origin) at 0.5 uM relative to control
[5] = biological target: Serine/threonine-protein kinase B-raf (Homo sapiens) (UniProt P15056); assay: Inhibition of BRAF (unknown origin) at 0.5 uM relative to control
[6] = biological target: SRSF protein kinase 3 (Homo sapiens) (UniProt Q9UPE1); assay: Inhibition of MSSK1 (unknown origin) at 0.5 uM relative to control
[7] = biological target: Serine/threonine-protein kinase PLK4 (Homo sapiens) (UniProt O00444); assay: Inhibition of PLK4 (unknown origin) at 0.5 uM relative to control
[8] = biological target: Homeodomain-interacting protein kinase 2 (Homo sapiens) (UniProt Q9H2X6); assay: Inhibition of HIPK2 (unknown origin) assessed as effect on HIPK2 protein level by Western blotting analysis
Chain of Homeodomain-interacting protein kinase 2 (Homo sapiens) (Q9H2X6 whole entry, looked up): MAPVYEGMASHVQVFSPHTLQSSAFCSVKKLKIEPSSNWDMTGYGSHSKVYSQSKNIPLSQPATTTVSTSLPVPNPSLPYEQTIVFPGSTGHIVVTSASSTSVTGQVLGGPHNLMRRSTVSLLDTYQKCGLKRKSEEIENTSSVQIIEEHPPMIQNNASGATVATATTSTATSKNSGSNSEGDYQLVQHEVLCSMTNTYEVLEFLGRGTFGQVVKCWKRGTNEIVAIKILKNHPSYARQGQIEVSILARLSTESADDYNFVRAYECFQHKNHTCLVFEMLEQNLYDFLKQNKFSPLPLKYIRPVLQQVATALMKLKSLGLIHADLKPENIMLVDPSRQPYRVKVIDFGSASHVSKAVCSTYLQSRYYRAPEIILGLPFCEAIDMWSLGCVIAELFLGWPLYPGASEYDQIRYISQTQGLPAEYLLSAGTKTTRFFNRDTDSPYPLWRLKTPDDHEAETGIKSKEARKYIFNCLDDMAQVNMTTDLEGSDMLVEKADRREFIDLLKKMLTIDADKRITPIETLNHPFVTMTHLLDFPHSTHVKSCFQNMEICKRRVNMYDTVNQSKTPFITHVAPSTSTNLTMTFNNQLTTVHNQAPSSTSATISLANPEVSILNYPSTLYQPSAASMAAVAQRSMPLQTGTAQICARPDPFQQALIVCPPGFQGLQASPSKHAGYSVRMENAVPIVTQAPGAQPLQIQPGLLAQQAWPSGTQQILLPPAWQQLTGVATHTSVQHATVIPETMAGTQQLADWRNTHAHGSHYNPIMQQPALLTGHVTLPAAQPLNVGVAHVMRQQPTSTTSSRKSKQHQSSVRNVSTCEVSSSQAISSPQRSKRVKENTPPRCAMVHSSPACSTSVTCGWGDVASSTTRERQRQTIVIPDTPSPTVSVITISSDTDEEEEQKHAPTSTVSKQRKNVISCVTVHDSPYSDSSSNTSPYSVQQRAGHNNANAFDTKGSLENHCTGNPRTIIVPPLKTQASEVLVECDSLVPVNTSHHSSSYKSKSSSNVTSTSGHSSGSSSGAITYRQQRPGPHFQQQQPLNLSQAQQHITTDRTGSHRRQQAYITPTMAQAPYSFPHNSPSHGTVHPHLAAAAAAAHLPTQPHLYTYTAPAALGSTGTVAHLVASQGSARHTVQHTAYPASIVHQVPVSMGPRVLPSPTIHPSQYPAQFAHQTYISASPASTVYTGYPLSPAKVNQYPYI

[9] = biological target: T1, Ephrin type-A receptor 8 (Homo sapiens) (UniProt P29322); assay: Inhibition of EPHA8 (unknown origin) at 0.5 uM relative to control
T1 sequence (whole entry): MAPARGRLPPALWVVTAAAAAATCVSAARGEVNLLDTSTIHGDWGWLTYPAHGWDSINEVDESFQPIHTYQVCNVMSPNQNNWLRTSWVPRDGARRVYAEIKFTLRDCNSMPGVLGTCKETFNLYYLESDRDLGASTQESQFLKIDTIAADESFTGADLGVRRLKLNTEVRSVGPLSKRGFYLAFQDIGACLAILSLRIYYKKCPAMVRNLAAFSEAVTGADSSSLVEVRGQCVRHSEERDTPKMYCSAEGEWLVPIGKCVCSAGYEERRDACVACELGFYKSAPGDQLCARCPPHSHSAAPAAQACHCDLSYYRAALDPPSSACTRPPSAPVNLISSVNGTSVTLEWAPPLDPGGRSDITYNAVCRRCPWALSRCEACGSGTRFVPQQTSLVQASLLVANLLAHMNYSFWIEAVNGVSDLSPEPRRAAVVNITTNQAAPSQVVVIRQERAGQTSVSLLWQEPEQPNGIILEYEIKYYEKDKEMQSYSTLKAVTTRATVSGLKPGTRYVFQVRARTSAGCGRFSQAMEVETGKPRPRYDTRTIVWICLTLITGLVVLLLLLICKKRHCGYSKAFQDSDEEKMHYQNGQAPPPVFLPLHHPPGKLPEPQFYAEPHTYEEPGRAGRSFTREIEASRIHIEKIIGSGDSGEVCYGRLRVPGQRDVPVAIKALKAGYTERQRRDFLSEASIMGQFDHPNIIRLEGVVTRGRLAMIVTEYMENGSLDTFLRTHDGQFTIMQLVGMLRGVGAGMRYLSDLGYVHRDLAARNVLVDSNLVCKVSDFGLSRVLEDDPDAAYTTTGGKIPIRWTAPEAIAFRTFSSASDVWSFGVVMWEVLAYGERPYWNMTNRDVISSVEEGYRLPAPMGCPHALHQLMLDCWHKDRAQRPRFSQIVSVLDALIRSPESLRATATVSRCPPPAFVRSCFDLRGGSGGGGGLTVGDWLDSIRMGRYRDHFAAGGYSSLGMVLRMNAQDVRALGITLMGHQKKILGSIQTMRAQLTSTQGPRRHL

[10] = biological target: Homeodomain-interacting protein kinase 3 (Homo sapiens) (UniProt Q9H422); assay: Inhibition of HIPK3 (unknown origin) assessed as effect on HIPK3 protein level by Western blotting analysis
Chain of Homeodomain-interacting protein kinase 3 (Homo sapiens) (Q9H422 whole entry, looked up): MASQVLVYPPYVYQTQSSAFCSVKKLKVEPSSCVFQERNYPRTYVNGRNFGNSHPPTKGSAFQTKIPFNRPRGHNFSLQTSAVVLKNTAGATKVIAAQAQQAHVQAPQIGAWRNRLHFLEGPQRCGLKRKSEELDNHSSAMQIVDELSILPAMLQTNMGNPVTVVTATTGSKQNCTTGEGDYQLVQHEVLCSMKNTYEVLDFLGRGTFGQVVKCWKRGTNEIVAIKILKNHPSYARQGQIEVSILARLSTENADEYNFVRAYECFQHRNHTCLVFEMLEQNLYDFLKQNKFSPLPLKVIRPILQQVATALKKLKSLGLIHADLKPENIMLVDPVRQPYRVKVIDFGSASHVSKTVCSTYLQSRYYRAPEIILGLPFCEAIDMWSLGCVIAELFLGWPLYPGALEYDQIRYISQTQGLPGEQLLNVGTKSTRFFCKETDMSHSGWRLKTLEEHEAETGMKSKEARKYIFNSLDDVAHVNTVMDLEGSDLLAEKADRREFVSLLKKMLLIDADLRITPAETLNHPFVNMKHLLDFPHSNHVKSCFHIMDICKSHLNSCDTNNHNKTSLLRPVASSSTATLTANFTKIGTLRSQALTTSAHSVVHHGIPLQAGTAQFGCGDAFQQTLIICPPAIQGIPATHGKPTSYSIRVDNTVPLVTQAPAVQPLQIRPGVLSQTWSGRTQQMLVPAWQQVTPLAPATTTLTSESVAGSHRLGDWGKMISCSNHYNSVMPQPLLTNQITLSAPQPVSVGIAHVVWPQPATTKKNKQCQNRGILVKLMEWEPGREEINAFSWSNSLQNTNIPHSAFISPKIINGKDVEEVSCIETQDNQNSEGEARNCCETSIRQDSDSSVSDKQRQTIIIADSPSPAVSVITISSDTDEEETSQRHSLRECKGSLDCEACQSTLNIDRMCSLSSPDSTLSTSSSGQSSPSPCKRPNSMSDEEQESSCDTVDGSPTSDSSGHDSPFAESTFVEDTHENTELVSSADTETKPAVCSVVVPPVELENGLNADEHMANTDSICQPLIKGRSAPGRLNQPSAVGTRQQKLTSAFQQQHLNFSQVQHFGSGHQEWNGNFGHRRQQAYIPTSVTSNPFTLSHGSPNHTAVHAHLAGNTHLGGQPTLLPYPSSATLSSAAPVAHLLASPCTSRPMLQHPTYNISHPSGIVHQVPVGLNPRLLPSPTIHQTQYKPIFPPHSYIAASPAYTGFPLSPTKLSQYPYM

[11] = biological target: T2, Serine/threonine-protein kinase TAO3 (Homo sapiens) (UniProt Q9H2K8); assay: Inhibition of TAOK3 (unknown origin) at 0.5 uM relative to control
T2 sequence (whole entry): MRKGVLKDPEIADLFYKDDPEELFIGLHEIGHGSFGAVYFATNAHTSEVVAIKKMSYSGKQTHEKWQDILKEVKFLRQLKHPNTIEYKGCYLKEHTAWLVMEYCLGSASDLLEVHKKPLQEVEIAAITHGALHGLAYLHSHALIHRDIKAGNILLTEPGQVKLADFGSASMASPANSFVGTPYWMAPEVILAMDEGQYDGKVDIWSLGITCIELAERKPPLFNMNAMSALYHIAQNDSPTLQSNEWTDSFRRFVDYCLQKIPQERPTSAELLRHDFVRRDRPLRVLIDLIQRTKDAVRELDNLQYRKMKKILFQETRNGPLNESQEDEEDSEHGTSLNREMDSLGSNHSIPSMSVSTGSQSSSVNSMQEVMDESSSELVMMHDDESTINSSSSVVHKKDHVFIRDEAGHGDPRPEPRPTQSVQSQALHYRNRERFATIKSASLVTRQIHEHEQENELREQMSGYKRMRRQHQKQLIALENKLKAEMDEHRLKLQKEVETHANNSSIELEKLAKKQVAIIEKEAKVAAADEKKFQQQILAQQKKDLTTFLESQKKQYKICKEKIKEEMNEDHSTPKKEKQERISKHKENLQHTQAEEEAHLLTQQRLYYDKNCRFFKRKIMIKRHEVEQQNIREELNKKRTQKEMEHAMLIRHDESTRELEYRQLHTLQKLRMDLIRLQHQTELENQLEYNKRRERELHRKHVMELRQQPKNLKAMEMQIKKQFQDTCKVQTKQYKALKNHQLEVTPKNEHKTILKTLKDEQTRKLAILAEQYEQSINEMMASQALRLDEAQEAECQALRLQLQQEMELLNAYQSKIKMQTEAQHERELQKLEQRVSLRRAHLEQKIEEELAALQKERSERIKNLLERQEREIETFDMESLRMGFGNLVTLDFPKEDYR

[12] = biological target: Homeodomain-interacting protein kinase 1 (Homo sapiens) (UniProt Q86Z02); assay: Inhibition of HIPK1 (unknown origin) assessed as effect on HIPK1 protein level by Western blotting analysis
Chain of Homeodomain-interacting protein kinase 1 (Homo sapiens) (Q86Z02 whole entry, looked up): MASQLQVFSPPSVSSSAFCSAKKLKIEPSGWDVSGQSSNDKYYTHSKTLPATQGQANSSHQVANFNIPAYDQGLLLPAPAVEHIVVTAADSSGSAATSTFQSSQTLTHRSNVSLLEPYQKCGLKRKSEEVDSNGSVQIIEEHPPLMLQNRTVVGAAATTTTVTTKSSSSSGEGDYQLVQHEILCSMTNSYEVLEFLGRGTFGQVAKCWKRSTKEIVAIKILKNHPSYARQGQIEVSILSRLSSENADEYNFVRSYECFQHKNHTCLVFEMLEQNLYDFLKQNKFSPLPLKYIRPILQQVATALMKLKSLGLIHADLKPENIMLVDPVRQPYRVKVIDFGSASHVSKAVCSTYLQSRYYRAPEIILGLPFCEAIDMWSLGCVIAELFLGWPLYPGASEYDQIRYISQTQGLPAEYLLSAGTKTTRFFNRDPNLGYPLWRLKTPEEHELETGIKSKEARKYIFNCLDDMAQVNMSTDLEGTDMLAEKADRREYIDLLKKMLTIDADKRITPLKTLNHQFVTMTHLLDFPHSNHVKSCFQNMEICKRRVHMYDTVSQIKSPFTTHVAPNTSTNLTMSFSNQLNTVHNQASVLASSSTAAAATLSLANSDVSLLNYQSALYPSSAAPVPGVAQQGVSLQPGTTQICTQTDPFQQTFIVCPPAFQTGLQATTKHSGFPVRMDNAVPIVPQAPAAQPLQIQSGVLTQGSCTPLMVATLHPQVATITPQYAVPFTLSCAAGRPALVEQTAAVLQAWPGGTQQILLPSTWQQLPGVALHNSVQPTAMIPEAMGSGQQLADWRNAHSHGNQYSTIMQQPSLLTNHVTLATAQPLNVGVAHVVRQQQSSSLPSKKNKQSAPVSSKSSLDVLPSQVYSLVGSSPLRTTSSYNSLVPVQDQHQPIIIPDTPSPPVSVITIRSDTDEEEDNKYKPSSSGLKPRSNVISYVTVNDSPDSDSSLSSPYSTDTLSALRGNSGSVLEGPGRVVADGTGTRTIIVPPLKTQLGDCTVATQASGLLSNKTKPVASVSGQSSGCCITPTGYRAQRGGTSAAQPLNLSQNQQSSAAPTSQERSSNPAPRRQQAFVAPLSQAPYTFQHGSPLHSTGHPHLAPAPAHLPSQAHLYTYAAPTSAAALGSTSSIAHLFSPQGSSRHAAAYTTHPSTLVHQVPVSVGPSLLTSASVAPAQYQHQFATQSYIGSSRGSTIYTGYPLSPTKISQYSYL

[13] = biological target: Tyrosine-protein kinase ABL2 (Homo sapiens) (UniProt P42684); assay: Inhibition of ARG (unknown origin) at 0.5 uM relative to control
[14] = biological target: Platelet-derived growth factor receptor beta (Homo sapiens) (UniProt P09619); assay: Inhibition of PDGFR-beta (unknown origin) at 0.5 uM relative to control
Chain of Platelet-derived growth factor receptor beta (Homo sapiens) (P09619 whole entry): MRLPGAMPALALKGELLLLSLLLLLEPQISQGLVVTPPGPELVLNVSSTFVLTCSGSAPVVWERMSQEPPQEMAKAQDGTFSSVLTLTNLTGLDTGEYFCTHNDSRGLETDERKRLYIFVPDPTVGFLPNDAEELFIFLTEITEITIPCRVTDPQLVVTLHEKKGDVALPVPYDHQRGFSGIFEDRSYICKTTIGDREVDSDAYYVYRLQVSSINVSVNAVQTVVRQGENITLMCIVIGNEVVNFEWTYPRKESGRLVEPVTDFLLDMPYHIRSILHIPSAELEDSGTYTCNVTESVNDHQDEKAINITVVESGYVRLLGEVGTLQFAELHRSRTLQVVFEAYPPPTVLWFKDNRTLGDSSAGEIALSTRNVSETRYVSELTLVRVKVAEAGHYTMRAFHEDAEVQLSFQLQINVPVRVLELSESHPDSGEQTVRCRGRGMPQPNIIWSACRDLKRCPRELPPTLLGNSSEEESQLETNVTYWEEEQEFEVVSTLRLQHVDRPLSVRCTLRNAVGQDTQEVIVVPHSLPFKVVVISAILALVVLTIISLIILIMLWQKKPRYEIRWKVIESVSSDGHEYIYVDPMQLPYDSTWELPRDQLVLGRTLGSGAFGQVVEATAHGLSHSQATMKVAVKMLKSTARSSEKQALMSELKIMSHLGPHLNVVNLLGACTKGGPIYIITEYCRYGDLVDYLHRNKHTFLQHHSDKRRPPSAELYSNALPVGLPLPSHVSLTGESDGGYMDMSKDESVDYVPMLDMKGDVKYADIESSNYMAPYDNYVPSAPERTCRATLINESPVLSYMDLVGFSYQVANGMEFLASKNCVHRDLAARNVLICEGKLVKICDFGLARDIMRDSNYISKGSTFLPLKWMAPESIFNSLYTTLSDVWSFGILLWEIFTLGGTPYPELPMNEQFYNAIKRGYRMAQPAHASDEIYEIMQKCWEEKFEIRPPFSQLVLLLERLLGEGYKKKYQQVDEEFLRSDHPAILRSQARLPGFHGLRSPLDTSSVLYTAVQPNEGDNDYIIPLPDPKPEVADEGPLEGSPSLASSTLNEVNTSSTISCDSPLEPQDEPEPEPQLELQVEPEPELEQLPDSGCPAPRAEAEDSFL

[15] = biological target: MAP kinase-interacting serine/threonine-protein kinase 2 (Homo sapiens) (UniProt Q9HBH9); assay: Inhibition of MNK2 (unknown origin) at 0.5 uM relative to control
[16] = biological target: Mitogen-activated protein kinase kinase kinase kinase 5 (Homo sapiens) (UniProt Q9Y4K4); assay: Inhibition of MAP4K5 (unknown origin) at 0.5 uM relative to control

Chain of Mitogen-activated protein kinase 11 (Homo sapiens) (Q15759 whole entry): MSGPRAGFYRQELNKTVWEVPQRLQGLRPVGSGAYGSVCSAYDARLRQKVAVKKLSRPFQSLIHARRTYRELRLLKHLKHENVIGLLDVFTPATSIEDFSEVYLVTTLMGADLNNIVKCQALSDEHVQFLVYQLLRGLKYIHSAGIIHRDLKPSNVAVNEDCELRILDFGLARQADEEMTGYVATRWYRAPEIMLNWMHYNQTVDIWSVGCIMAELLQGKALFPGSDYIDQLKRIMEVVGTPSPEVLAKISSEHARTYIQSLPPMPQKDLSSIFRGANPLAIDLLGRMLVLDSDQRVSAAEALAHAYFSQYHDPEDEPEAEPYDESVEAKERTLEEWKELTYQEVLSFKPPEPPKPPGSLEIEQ

Compound | Activity [8] | inhibition [9] | Activity [10] | inhibition [11] | Activity [12] | inhibition [14] | further results
CSc1nc(C(=O)Nc2ccc(Oc3cc4cnn(C)c4cc3Br)cc2)c(-c2ccc(F)cc2)o1 |  |  |  |  |  |  | inhibition [1]: 21%; inhibition [2]: 37%; inhibition [3]: 21%; inhibition [4]: 19%; inhibition [5]: 19%; inhibition [6]: 14%; inhibition [7]: 14%
CNC(=O)c1cc(Oc2ccc(NC(=O)c3nc(SC)oc3-c3ccc(F)cc3)cc2)ccn1 | inactive | 54% | inactive | 39% | inactive | 55% | inhibition [1]: 40%; inhibition [13]: 40%
CNC(=O)c1cc(Oc2ccc(NC(=O)c3n[nH]nc3-c3ccc(F)cc3)cc2)ccn1 |  | 51% |  |  |  | 60% | inhibition [15]: 32%; inhibition [5]: 28%; inhibition [6]: 25%
CNC(=O)c1cc(Oc2ccc(NC(=O)c3nc(SC)oc3-c3ccc(F)cc3)cc2F)ccn1 |  |  |  | 40% |  | 40% | 
CNC(=O)c1cc(Oc2ccc(NC(=O)c3nc(C(F)(F)F)sc3-c3ccc(F)cc3)cc2)ccn1 |  |  |  |  |  |  | inhibition [2]: 37%; inhibition [16]: 55%; inhibition [13]: 32%
CNC(=O)c1cc(Oc2ccc(NC(=O)c3nc(SC)n(CCN(C)C)c3-c3ccc(F)cc3)cc2)ccn1 |  |  |  |  |  | 70% | 

Further lines, with some results ahead:

Activity [8] | inhibition [9] | Activity [10] | inhibition [11] | Activity [12] | inhibition [14] | Compound | further results
 |  |  | 55% |  | 61% | CNC(=O)c1cc(Oc2ccc(NC(=O)c3nc(NC)sc3-c3ccc(F)cc3)cc2)ccn1 | 
inactive |  | inactive |  | inactive |  | CNC(=O)c1cc(Oc2ccc(NC(=O)c3nc(SC)[nH]c3-c3ccc(F)cc3)cc2)ccn1 | inhibition [15]: 90%; inhibition [16]: 94%
inactive | 54% | inactive |  | inactive |  | CNC(=O)c1cc(Oc2ccc(NC(=O)c3nc(S(C)(=O)=O)sc3-c3ccc(F)cc3)cc2)ccn1 | 
